Consider one compound from US20250171460A1, “INDUCERS OF KLF2 AND METHODS OF USE THEREOF” (Riparian Pharmaceuticals, Inc., priority 2022, published 2025).

Molecules are shown by their SMILES.

This assay deals with primary human endothelial cells expressing luciferase under the control of the KLF2 promoter. Description: KLF2 Induction Cell Based Bioassay (luciferase reporter). The note with it: Homo sapiens, Endothelial cell, 24 h, KLF2 promoter luciferase, 24 hours, 11-point concentration response; read-out: Activity Range (EC50). In short, it runs like this:
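Reporter cells dosed with 11-point 1:2 series (≤1% DMSO) for 24 h at 37 °C. Secreted Gaussia luciferase in supernatant read as luminescence after injection of 50 μM coelenterazine; signals normalized to DMSO and maximal reference-compound response, EC50 where curve crosses 0.5.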
(In a reporter assay the amount or activity of a reporter protein is the signal.)

For `COCCN1C(=O)c2oc3ccccc3c2OCC1(C)C(=O)NCc1c(OC)ccc(Cl)c1F` (stereo not shown) [Example 46], the EC50 lay in the range of 0.501 to 5 µM.

For orientation: EC50 means the concentration giving half of the maximal effect.
